Experimental data reported in patent US10858364B2, “Imidazopyrazine inhibitors of Bruton's tyrosine kinase” (Acerta Pharma B.V., priority 2016, dated 2020).

Experiments:
ERBB4 = ERBB4 (Homo sapiens (Human), UniProt Q15303); experiment: ERBB4 Z'-LYTE kinase assay; assay type: biochemical; settings: 1 h pre-incubation, Km ATP
Procedure: (§1) BMX, TXK, EGFR, ERBB2, ERBB4, JAK3, BLK kinase activity was measured using the Z′-LYTE assay at Thermo Fisher. A 10-point dose response (final concentration in assay ranged from 10 μM to 0.5 nM in 3-fold dilution per dilution step) was generated with 1 h incubation of the test compound with the kinase prior to initiation of the kinase reaction by the addition of ATP. ATP concentration in the assay was Km ATP for the different kinases. IC50 values are determined by curve fitting of the experimental results at Thermo Fisher.

BLK = BLK (Homo sapiens (Human), UniProt P51451); experiment: BLK Z'-LYTE kinase assay; assay type: biochemical; settings: 1 h pre-incubation, Km ATP
Chain of BLK (P51451 whole entry): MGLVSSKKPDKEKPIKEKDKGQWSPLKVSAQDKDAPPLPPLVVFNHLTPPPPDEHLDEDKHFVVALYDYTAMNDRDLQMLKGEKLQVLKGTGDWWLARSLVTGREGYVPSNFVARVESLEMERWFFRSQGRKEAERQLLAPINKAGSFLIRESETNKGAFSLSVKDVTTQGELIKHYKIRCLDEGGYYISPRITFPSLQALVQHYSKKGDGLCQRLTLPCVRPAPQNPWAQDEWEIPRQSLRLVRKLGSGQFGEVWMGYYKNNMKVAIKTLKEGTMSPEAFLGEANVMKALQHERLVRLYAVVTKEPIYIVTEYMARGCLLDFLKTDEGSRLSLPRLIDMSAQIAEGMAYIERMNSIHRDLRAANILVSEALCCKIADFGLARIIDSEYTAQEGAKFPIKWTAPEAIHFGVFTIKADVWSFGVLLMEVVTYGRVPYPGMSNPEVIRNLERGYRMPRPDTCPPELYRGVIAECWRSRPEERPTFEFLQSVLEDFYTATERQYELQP
Procedure: as §1

BTK [1] = target: T1, BTK (Homo sapiens (Human), UniProt Q06187); experiment: BTK IMAP with ATP competition and variable pre-incubation; assay type: biochemical
T1 sequence (Q06187 whole entry): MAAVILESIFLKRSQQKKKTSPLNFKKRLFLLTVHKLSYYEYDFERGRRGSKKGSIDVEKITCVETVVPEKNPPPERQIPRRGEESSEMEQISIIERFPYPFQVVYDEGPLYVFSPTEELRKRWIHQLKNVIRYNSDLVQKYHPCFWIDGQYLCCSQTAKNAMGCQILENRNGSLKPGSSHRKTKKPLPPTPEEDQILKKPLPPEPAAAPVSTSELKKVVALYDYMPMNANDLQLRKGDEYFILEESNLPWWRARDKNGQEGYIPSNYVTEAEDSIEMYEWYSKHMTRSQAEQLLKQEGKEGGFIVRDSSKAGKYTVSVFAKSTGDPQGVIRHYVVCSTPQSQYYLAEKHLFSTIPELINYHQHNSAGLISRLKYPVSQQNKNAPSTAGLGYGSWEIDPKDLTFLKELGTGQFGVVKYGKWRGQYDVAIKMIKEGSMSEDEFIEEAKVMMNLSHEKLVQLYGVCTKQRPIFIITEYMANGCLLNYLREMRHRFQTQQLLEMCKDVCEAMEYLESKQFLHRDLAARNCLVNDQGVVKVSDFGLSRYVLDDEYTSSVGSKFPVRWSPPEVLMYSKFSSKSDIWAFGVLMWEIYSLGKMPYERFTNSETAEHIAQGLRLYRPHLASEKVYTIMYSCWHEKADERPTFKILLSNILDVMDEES
Procedure: BTK enzyme activity with ATP competition was measured using the IMAP (immobilized metal ion affinity-based fluorescence polarization) assay. BTK enzyme (Millipore) was diluted to 16 nM, respectively in Kinase Reaction (KR) buffer (10 mM Tris-HCl, 10 mM MgCl2, 0.01% Tween-20, 0.1% NaN3, 1 mM DTT, 2 mM MnCl2, pH 7.5). Serial dilutions […] from 1 mM to 31.6 nM of test compounds were made in 100% DMSO. The dilutions in DMSO were then diluted 25-fold in KR-buffer. Final compound concentrations ranged from 10 μM to 0.316 nM. The assay is performed as follows: 5 μL/well of test compound in KR buffer (final DMSO concentration in the assay is 1%) was mixed with 5 µl/well of BTK or ITK enzyme (final concentration in the assay was 4 and 8 nM for BTK and ITK, respectively). Test compounds and kinase enzyme were pre-incubated 0, 30, or 60 min, before adding 5 μL/well of 200 nM Fluorescein labeled substrate peptide (Blk/Lyntide substrate, Molecular Devices) in KR-buffer. Final peptide substrate concentration in assay was 50 nM. The kinase assay was started by adding 5 μL/well of 20, 100, or 400 μM ATP in KR-buffer (final ATP concentration was 5, 25, or 100 μM ATP). Following incubation for 2h at room temperature the enzyme reaction was stopped by adding 40 μL/well IMAP Progressive Binding Solution (Molecular Devices), according to product instructions, using 60% lx buffer A and 40% lx buffer B with 800× diluted beads). After 60 min incubation at room temperature in the dark the FP signal was read. Fluorescence at 535 nm was measured using parallel and perpendicular filters to determine differences in rotation due to binding of the phosphorylated substrate peptide to the beads. Values were calculated as percentage of the difference in readout (AmPi) of the controls with and without ATP. IC50 values were determined by curve fitting of the experimental results using Dotmatics. […] M27 was tested in the BTK IMAP ATP competition assays with variable pre-incubation times (0, 30, and 60 minutes) and ATP concentrations (5, 25 and 100 μM). The results in Table 2 and FIG. 2 confirm that M27 is covalent inhibitors of BTK. […] Furthermore, there is loss of ATP competition following pre-incubation of BTK with M27, a result that is typical for compounds that bind covalently.

[2] = system: all available kinases (KINOMEscan); experiment: KINOMEscan (DiscoveRx scanMAX) profiling, selectivity score; assay type: binding; settings: single dose of 1 μM
Procedure: (§2) Kinase profiling was performed with M27 was done at DiscoveRx at a single dose of 1 μM on all available kinases (KINOMEscan). The overall kinase selectivity score is in Table 6. […] Kinases inhibited >65% at 1 μM for M27 were followed up with a dose response at DiscoveRx. The M27 had IC50 values <1 μM for almost the same set of kinases with exception of TXK, but with additional inhibition of BRK (PTK6).

BTK [3] = target: T1, BTK; experiment: DiscoveRx Kd dose response, BTK; assay type: binding
Procedure: as §2

BRK (PTK6) = BRK (PTK6) (Homo sapiens (Human), UniProt Q13882); experiment: DiscoveRx Kd dose response, BRK (PTK6); assay type: binding
Chain of BRK (PTK6) (Q13882 whole entry): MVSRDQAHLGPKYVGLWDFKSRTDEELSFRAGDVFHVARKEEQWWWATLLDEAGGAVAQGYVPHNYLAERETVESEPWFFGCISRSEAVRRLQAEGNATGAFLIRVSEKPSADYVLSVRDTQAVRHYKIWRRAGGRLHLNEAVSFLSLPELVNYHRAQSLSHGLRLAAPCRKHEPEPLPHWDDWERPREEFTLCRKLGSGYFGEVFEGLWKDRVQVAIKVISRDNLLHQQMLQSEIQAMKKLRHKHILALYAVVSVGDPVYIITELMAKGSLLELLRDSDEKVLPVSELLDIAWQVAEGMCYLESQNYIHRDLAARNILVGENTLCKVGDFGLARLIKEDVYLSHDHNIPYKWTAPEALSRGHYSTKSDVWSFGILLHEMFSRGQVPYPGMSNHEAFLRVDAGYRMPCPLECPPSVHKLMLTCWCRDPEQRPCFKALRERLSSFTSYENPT
Procedure: as §2

[4] = Clinical pharmacokinetics of acalabrutinib and its major metabolite; assay type: in vivo, human; settings: human, in vivo; single oral dose of 100 mg acalabrutinib; read-out: median terminal elimination half-life (t½) (converted)
Text: The compound of Formula (I) was identified as the major metabolite in plasma with a geometric mean exposure (AUC) approximately 2- to 3-fold higher than the exposure of acalabrutinib.
Acalabrutinib and the major metabolite form a covalent bond with a cysteine residue in the BTK active site, leading to inhibition of BTK enzymatic activity. Acalabrutinib binding with the cysteine residue occurs rapidly and irreversibly and provides high target occupancy at steady state.

CYP2C8 = CYP2C8 (Homo sapiens (Human), UniProt P10632); experiment: CYP inhibition, CYP2C8; assay type: in vitro ADME
Chain of CYP2C8 (P10632 whole entry): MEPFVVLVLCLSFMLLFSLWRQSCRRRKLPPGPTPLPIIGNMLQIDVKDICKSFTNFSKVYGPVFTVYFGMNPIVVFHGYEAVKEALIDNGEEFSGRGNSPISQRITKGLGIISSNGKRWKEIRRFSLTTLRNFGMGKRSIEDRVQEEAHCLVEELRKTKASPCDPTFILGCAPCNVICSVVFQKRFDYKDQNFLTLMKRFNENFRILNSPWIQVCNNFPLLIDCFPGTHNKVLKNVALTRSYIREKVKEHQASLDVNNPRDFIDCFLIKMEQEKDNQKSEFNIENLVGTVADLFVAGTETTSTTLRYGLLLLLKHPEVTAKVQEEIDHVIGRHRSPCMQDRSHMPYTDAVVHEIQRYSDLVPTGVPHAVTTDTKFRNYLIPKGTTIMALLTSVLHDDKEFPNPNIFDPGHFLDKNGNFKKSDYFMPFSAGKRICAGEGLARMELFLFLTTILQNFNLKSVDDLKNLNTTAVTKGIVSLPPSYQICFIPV

CYP2C9 = CYP2C9 (Homo sapiens (Human), UniProt P11712); experiment: CYP inhibition, CYP2C9; assay type: in vitro ADME
Chain of CYP2C9 (P11712 whole entry): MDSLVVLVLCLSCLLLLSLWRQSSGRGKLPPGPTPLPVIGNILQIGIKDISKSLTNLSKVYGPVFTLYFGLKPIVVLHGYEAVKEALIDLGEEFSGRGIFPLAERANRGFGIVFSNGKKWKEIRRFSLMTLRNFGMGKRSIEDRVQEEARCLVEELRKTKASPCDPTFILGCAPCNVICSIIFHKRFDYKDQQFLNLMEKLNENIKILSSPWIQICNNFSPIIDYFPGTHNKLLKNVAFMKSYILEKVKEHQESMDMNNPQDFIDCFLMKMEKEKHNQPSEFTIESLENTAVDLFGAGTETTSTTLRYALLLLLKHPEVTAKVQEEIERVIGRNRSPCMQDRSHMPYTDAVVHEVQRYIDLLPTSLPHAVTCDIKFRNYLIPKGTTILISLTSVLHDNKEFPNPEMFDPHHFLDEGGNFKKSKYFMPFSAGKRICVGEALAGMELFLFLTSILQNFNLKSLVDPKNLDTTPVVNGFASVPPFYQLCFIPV

CYP1A2 = CYP1A2 (Homo sapiens (Human), UniProt P05177)
Chain of CYP1A2 (P05177 whole entry): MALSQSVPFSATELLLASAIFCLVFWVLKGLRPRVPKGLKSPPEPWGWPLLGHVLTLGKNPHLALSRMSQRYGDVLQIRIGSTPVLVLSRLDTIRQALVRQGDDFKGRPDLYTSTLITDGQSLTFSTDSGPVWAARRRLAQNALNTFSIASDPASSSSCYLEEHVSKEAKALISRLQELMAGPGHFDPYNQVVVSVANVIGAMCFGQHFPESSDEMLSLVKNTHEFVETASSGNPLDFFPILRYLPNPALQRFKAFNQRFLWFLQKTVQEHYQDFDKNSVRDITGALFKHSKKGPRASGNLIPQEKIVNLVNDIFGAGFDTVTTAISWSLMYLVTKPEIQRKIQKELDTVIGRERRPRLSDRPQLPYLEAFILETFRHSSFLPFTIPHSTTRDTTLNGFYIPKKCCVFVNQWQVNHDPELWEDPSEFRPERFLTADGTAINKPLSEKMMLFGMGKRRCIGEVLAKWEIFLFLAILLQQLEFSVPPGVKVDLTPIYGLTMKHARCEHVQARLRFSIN

Chain of ERBB4 (Q15303 26-1308): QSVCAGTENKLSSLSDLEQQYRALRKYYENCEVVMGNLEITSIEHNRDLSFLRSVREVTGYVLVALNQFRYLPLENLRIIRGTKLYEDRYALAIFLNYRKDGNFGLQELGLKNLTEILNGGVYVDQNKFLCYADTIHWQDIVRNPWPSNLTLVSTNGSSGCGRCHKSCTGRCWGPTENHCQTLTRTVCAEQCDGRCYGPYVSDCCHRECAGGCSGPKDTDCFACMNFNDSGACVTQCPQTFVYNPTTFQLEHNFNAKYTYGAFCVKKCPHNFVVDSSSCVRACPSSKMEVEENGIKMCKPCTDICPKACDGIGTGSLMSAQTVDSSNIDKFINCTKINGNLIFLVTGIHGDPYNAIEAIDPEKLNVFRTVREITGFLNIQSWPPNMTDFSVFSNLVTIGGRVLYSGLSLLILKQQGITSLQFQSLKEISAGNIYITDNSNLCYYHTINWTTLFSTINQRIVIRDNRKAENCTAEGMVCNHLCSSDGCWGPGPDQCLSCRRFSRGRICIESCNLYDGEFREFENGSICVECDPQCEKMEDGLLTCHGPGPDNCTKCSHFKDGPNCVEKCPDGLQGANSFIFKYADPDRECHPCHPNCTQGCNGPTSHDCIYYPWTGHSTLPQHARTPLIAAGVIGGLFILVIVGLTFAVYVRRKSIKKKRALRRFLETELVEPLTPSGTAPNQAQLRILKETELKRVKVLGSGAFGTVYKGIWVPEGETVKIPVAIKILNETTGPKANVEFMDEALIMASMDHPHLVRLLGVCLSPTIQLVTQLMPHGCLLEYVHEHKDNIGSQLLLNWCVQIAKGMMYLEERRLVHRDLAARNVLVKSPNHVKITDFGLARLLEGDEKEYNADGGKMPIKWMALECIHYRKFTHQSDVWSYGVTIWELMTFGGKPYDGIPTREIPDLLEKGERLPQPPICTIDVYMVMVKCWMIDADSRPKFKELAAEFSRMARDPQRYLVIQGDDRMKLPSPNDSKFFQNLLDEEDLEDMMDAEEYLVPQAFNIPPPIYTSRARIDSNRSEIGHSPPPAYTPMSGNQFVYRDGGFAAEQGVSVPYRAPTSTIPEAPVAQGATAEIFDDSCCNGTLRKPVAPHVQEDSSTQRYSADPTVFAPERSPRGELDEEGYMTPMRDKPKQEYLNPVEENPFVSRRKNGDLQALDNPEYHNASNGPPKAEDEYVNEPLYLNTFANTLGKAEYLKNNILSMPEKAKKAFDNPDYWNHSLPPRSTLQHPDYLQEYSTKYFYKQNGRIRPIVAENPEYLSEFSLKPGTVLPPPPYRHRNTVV

IC50 (ERBB4): 343 ± 23 nM
IC50 (BLK): 6170 ± 3350 nM
IC50 (BTK [1]; 5 μM ATP, 0 minute pre-incubation): 27.3 nM
IC50 (BTK [1]; 5 μM ATP, 30 minutes pre-incubation): 12.6 nM
IC50 (BTK [1]; 5 μM ATP, 60 minutes pre-incubation): 6.9 nM
IC50 (BTK [1]; 25 μM ATP, 0 minute pre-incubation): 72.4 nM
IC50 (BTK [1]; 25 μM ATP, 30 minutes pre-incubation): 18.1 nM
IC50 (BTK [1]; 25 μM ATP, 60 minutes pre-incubation): 9.5 nM
IC50 (BTK [1]; 100 μM ATP, 0 minute pre-incubation): 101 nM
IC50 (BTK [1]; 100 μM ATP, 30 minutes pre-incubation): 23.7 nM
IC50 (BTK [1]; 100 μM ATP, 60 minutes pre-incubation): 10.8 nM
Kd (BTK [3]): 29 nM
Kd (BRK (PTK6)): 150 nM
half-life [4]: 6.9 h
CYP2C8 inhibition (CYP2C8): weak inhibitor
CYP2C9 inhibition (CYP2C9): weak inhibitor
CYP1A2 inhibition (CYP1A2): does not inhibit
SMILES: CC#CC(=O)NCCCC(=O)c1nc(-c2ccc(C(=O)Nc3ccccn3)cc2)c2c(N)nccn12 [Formula (I), 4-(8-amino-3-(4-(but-2-ynamido)butanoyl)imidazo[1,5-a]pyrazin-1-yl)-N-(pyridin-2-yl)benzamide]
Selectivity Score S(10) [2]: 0.005
Selectivity Score S(35) [2]: 0.013
